From patent US8637683B2, “Macrocyclic lactone derivatives for the treatment of cancer” (Piramal Enterprises Limited, priority 2009, dated 2014)
Values after ≈ are worked out from the molar mass of the structure shown.

How the values were obtained:
Format in all cases: cell-based, human
PANC 1 = test: Monolayer assay (modified propidium iodide), PANC 1; details: PANC 1, Pancreas, 4 days of treatment
Source text: (§1) Oncotest GmbH, Germany's proprietary tumor cell line panel comprises 40 cell lines. These cell lines were derived from 15 different tumor histotypes, each represented by 1 to 6 different cell lines. Cell lines were established from cancer of the bladder (3), colon (4), head and neck (1), lung (6), breast (3), pancreas (3), prostate (4), ovary (2), kidney (3), liver (1), stomach (1) and the uteri body (1), as well as from melanoma (3), sarcoma (2) and pleuramesothelioma (3). Out of these 40 cell lines, 24 cell lines were established at Oncotest, from patient-derived tumor xenografts. […]
(§2) Stock solutions of the test compounds (330 μg/mL in DMSO) were prepared and stored in small aliquots (200 μL) at −20° C. […] Each concentration was evaluated in triplicate. […]
(§3) Cells were plated in 96-well flat-bottom microtiter plates at a cell density of 4,000 to 10,000 cells/well. […] To measure the viable cell number, the remaining adherent cells were killed and permeabilized by repeated freezing and thawing and PI fluorescence was measured using the Cytofluor 4000 microplate reader (excitation λ=530 nm, emission λ=620 nm), which was a measure for the number of cells which survived treatment. […] IC-values were calculated based on the principle of linear two-point curve fit. […]

PXF 698L = test: Monolayer assay (modified propidium iodide), PXF 698L; details: Pleuramesothelioma, 4 days of treatment
Source text: as §1, §2, §3

MDA 231 = test: Monolayer assay (modified propidium iodide), MDA 231; details: MDA 231, Mammary, 4 days of treatment
Source text: (§4) Oncotest GmbH, Germany's proprietary tumor cell line panel comprises 40 cell lines. These cell lines were derived from 15 different tumor histotypes, each represented by 1 to 6 different cell lines. Cell lines were established from cancer of the bladder (3), colon (4), head and neck (1), lung (6), breast (3), pancreas (3), prostate (4), ovary (2), kidney (3), liver (1), stomach (1) and the uteri body (1), as well as from melanoma (3), sarcoma (2) and pleuramesothelioma (3). Out of these 40 cell lines, 24 cell lines were established at Oncotest, from patient-derived tumor xenografts. The other 16 cell lines were either provided by the NCI (Bethesda; MD, USA) or were purchased from ATCC (Rockville, Md., USA) or DSMZ (Braunschweig, Germany).
(§5) Cell lines were routinely passaged once or twice weekly and maintained in culture for upto 20 passages. All cells were grown at 37° C. in a humidified atmosphere with 5% CO2 in RPMI 1640 medium supplemented with 10% (v/v) fetal calf serum (FCS) and 0.1 mg/mL gentamicin (medium and all other components from PAA, Cölbe, Germany). […]
as §2
as §3, with “treatment. Pharmacological effects on cell proliferation and survival were expressed as Test/Control×100 (% T/C) values, with T and C representing the fluorescence read-outs for wells with and without test compound, respectively, i.e. T/C represents the ratio of viable cell numbers following incubation of cell line with/without test compound.” for “treatment.”

MCF 7 = test: Monolayer assay (modified propidium iodide), MCF 7; details: MCF 7, Mammary, 4 days of treatment
Source text: as §1, §2, §3

22RV1 = test: Monolayer assay (modified propidium iodide), 22RV1; details: 22RV1, Prostate, 4 days of treatment
Source text: as §1, §2, §3

LIXF 575L = test: Monolayer assay (modified propidium iodide), LIXF 575L; details: Liver, 4 days of treatment
Source text: as §1, §2, §3

GXF 251 L = test: Monolayer assay (modified propidium iodide), GXF 251 L; details: Gastric, 4 days of treatment
Source text: as §1, §2, §3

LXF 529L = test: Monolayer assay (modified propidium iodide), LXF 529L; details: Lung, 4 days of treatment
Source text: as §1, §2, §3

PXF 1752L = test: Monolayer assay (modified propidium iodide), PXF 1752L; details: Pleuramesothelioma, 4 days of treatment
Source text: as §1, §2, §3

LXF 289L = test: Monolayer assay (modified propidium iodide), LXF 289L; details: Lung, 4 days of treatment
Source text: as §1, §2, §3

RKO = test: Monolayer assay (modified propidium iodide), RKO; details: Colon, 4 days of treatment
Source text: as §1, §2, §3

PXF 1118L = test: Monolayer assay (modified propidium iodide), PXF 1118L; details: Pleuramesothelioma, 4 days of treatment
Source text: as §1, §2, §3

BXF 1352L = test: Monolayer assay (modified propidium iodide), BXF 1352L; details: Bladder, 4 days of treatment
Source text: as §1, §2, §3

PAXF 1657L = test: Monolayer assay (modified propidium iodide), PAXF 1657L; details: Pancreas, 4 days of treatment
Source text: as §1, §2, §3

CXF 269L = test: Monolayer assay (modified propidium iodide), CXF 269L; details: Colon, 4 days of treatment
Source text: as §4, §5, §2
as §3, with “treatment. Pharmacological effects on cell proliferation and survival were expressed as Test/Control×100 (% T/C) values, with T and C representing the fluorescence read-outs for wells with and without test compound, respectively, i.e. T/C represents the ratio of viable cell numbers following incubation of cell line with/without test compound.” for “treatment.”

LXF 1121L = test: Monolayer assay (modified propidium iodide), LXF 1121L; details: Lung, 4 days of treatment
Source text: as §1, §2, §3

RXF 1781L = test: Monolayer assay (modified propidium iodide), RXF 1781L; details: Renal, 4 days of treatment
Source text: as §1, §2, §3

LNCAP = test: Monolayer assay (modified propidium iodide), LNCAP; details: Prostate, 4 days of treatment
Source text: as §1, §2, §3

With `C/C=C/C(O)C(C)/C=C/C(=N\O)C(C)C(O)C(C)C1OC(=O)/C(OC)=C/C(C)=C/C(C)C(O)C(CC)C(O)C(C)C/C(C)=C/C=C/C1OC` (stereo not drawn) [Example 7, (3Z,5E,13E,15E)-18-((5Z,6E,10E)-3,9-Dihydroxy-5-(hydroxymino)-4,8-dimethyldodeca-6,10-dien-2-yl)-9-ethyl-8,10-dihydroxy-3,17-dimethoxy-5,7,11,13-tetramethyl oxacyclooctadeca-3,5,13,15-tetraen-2-one] the IC50 (PANC 1; Homo sapiens, 96 h) was 0.6 ng/mL (≈ 0.87 nM), the IC70 (PANC 1) was 17.0 ng/mL (≈ 24.6 nM) and the IC50 (PXF 698L; Homo sapiens, 96 h) was 0.4 ng/mL (≈ 0.58 nM). For the same molecule, the IC70 (PXF 698L) was 2.0 ng/mL (≈ 2.9 nM), the IC50 (MDA 231; Homo sapiens, MDA-MB-231, 96 h) was < 0.1 ng/mL and the IC70 (MDA 231) was <0.1 ng/mL. It also gave an IC50 (MCF 7; Homo sapiens, MCF7, 96 h) of 1 ng/mL (≈ 1.45 nM), an IC70 (MCF 7) of 4.0 ng/mL (≈ 5.8 nM) and an IC70 (22RV1) of 9.0 ng/mL (≈ 13 nM). For the same molecule, the IC50 (22RV1; Homo sapiens, 96 h) was 4 ng/mL (≈ 5.8 nM), the IC50 (LIXF 575L; Homo sapiens, 96 h) was < 0.1 ng/mL and the IC70 (LIXF 575L) was 2.0 ng/mL (≈ 2.9 nM). It also gave an IC70 (GXF 251 L) of 6.0 ng/mL (≈ 8.7 nM), an IC50 (GXF 251 L; Homo sapiens, 96 h) of 1 ng/mL (≈ 1.45 nM) and an IC50 (LXF 529L; Homo sapiens, 96 h) of 1 ng/mL (≈ 1.45 nM). The IC70 (LXF 529L) was 7.0 ng/mL (≈ 10.1 nM), the IC50 (PXF 1752L; Homo sapiens, 96 h) was 3 ng/mL (≈ 4.35 nM) and the IC70 (PXF 1752L) was 22.0 ng/mL (≈ 31.9 nM). For the same molecule, the IC50 (LXF 289L; Homo sapiens, 96 h) was 6 ng/mL (≈ 8.7 nM), the IC70 (LXF 289L) was 68.0 ng/mL (≈ 98.6 nM) and the IC70 (RKO) was 0.6 ng/mL (≈ 0.87 nM). The IC50 (RKO; Homo sapiens, 96 h) was 0.2 ng/mL (≈ 0.29 nM), the IC50 (PXF 1118L; Homo sapiens, 96 h) was 432 ng/mL (≈ 626 nM) and the IC70 (PXF 1118L) was >1000 ng/mL. The IC70 (BXF 1352L) was 2.0 ng/mL (≈ 2.9 nM), the IC50 (BXF 1352L; Homo sapiens, 96 h) was 0.2 ng/mL (≈ 0.29 nM) and the IC50 (PAXF 1657L; Homo sapiens, 96 h) was 8 ng/mL (≈ 11.6 nM). The IC70 (PAXF 1657L) was >1000 ng/mL, the IC70 (CXF 269L) was 0.2 ng/mL (≈ 0.29 nM) and the IC50 (CXF 269L; Homo sapiens, 96 h) was < 0.1 ng/mL. It also gave an IC50 (LXF 1121L; Homo sapiens, 96 h) of 1 ng/mL (≈ 1.45 nM), an IC70 (LXF 1121L) of 5.0 ng/mL (≈ 7.25 nM) and an IC50 (RXF 1781L; Homo sapiens, 96 h) of 7 ng/mL (≈ 10.1 nM). The IC70 (RXF 1781L) was 28.0 ng/mL (≈ 40.6 nM), the IC50 (LNCAP; Homo sapiens, 96 h) was 3 ng/mL (≈ 4.35 nM) and the IC70 (LNCAP) was 15.0 ng/mL (≈ 21.7 nM).
